Patent publication US5712151A, “Antifungal agent” (Merck & Co., Inc., priority 1996, dated 1998)
Values after ≈ are worked out from the molar mass of the structure shown.

Key:
Assay type in all cases: cell-based
[1] = test system: Candida albicans (MY1055); test: broth microdilution assay (MIC/MFC), Candida albicans (MY1055)
Method: (§1) In the microbroth dilution assay, microorganisms were selected by streaking a yeast culture on Sabouraud dextrose agar (SDA) incubating for 24-48 hours at 35°-37° C., thereafter selected 3 to 5 characteristic colonies and transferring to a fresh plate and incubating under similar conditions. From the regrowth, 3 to 5 colonies were selected and suspended in 10 milliliters of YM broth (Difco) and incubated for 4 hours at 35°-37° C. shaking at 225 rpm. The 4 hour broth cultures were adjusted optically to 86% transmission resulting in a concentration of 1-5×10^6 cfu/ml which was further diluted 1:100 in YNBD (yeast nitrogen base with 1% dextrose) to obtain a concentration of 1-5×10^4 cfu/ml for use as inocula. […]
(§2) The plates containing the diluted compounds were then inoculated with 75 μl/well of the appropriate microorganism and incubated for 48 hours at 35°-37° C. with MIC (minimum inhibitory concentration) determinations carried out after 24 hours of incubation (except Cryptococcus strains which are read at 48 hours). […]
(§3) After recording MICs at 24 hours, the microtiter plates were shaken gently to resuspend the cells. […] For Cryptococcus neoformans, SDA plates were inoculated at 48 hours after recording MICs and incubated 48 hours before reading the MFC. […]

[2] = test system: Candida glabrata (MY1381); test: broth microdilution assay (MIC/MFC), Candida glabrata (MY1381); details: Nakaseomyces glabratus
Method: as §1, §2, §3

[3] = test system: Candida parapsilosis (MY1010); test: broth microdilution assay (MIC/MFC), Candida parapsilosis (MY1010); details: Lodderomyces parapsilosis
Method: as §1, §2, §3

[4] = test system: Candida pseudotropicalis (MY2099); test: broth microdilution assay (MIC/MFC), Candida pseudotropicalis (MY2099); details: Kluyveromyces marxianus
Method: as §1, §2, §3

[5] = test system: Candida tropicalis (MY1124); test: broth microdilution assay (MIC/MFC), Candida tropicalis (MY1124)
Method: as §1, §2, §3

[6] = test system: Candida albicans (CLY539); test: broth microdilution assay (MIC/MFC), Candida albicans (CLY539)
Method: as §1, §2, §3

Candida albicans (CA2) = test: broth microdilution assay (MIC/MFC), Candida albicans (CA2)
Method: as §1, §2, §3

[7] = test system: Candida tropicalis (MY1012); test: broth microdilution assay (MIC/MFC), Candida tropicalis (MY1012)
Method: as §1, §2, §3

[8] = test system: Candida guillermondii (MY1019); test: broth microdilution assay (MIC/MFC), Candida guillermondii (MY1019)
Method: as §1, §2, §3

Candida krusei = test: broth microdilution assay (MIC/MFC), Candida krusei; details: Pichia kudriavzevii
Method: as §1, §2, §3

[9] = test system: Cryptococcus neoformans (MY2061); test: broth microdilution assay (MIC/MFC), Cryptococcus neoformans (MY2061); details: 48 hours, 35°-37° C., read-out: Minimum Inhibitory Concentration (MIC)
Method: as §1, §2, §3

[10] = test system: Cryptococcus neoformans (MY2062); test: broth microdilution assay (MIC/MFC), Cryptococcus neoformans (MY2062); details: 48 hours
Method: as §1, §2, §3

[11] = test system: Saccharomyces cerevisiae (MY2140); test: broth microdilution assay (MIC/MFC), Saccharomyces cerevisiae (MY2140)
Method: as §1, §2, §3

[12] = test system: Aspergillus fumigatus (MY4839); test: broth microdilution assay (MIC), Aspergillus fumigatus (MY4839); details: read-out: Minimum Inhibitory Concentration (MIC)
Method: (§4) The test compound was dissolved at […] in 10% DMSO and diluted 2× into the first well to achieve a concentration of 256 μg/ml at 5% DMSO in the first well. Compounds are subsequently serially diluted 2× and cell suspension is added to each well resulting in an additional 2× dilution of compound. 75 μl of said solution is delivered to each well in column 1 of a 96-well, U-bottomed microtiter plate. The compounds in column 1 were then serially diluted two-fold to yield concentrations from 64 μg/ml to 0.03 μg/ml.
(§5) The plates containing the diluted compounds were then inoculated with 75 μl/well of the appropriate microorganism and incubated for 48 hours at 35°-37° C. with MIC (minimum inhibitory concentration) determinations carried out after 24 hours of incubation (except Cryptococcus strains which are read at 48 hours). Growth and sterility controls for each organism and sterility checks for the compounds also were carried out.

[13] = test system: Aspergillus fumigatus (MY5668); test: broth microdilution assay (MIC), Aspergillus fumigatus (MY5668); details: read-out: Minimum Inhibitory Concentration (MIC)
Method: as §4, §5

panel of fungi = test: broth microdilution assay (MIC and MFC) against a panel of fungi; details: control compound amphotericin B
Method: as §1, §2, §3

[14] = test system: filamentous fungi (Aspergillus flavus, Fusarium oxysporum, Ustilago zeae and the like); test: agar plate inhibition zone test with filamentous fungi; details: methanol solutions on agar plates; 28° C. or 37° C., 24 hours
Method: The compound is also useful for inhibiting the growth of filamentous fungi. Such use may be illustrated in the following tests with Aspergillus flavus, Fusarium oxysporum, Ustilago zeae and the like. Inocula for filamentous fungi are prepared by scraping the surface of stock plates maintained on potato dextrose agar with a moistened sterile dacron swab. The spores and mycelia are then suspended in 10 milliliters of sterile potato dextrose broth and adjusted to 70 percent transmission at 660 nm. The samples to be tested for production of antifungal agent are applied directly to the agar plates as methanol solutions. When the sample to be tested is crude broth, it may be centrifuged prior to application. The assay plates are then incubated at either 28° C. or 37° C. for 24 hours. Following incubation, the inhibition zones are measured. Growths are also noted as to appearance.

[15] = 24 hours, 35°-37° C., read-out: Minimum Inhibitory Concentration (MIC)
[16] = no growth or ≤4 colonies on SDA, read-out: Minimum Fungicidal Concentration (MFC)

C=CC(CCCCC)C1=C(C(=O)C2C3C(C)CC(C(=O)OC)C(O)C3C(O)C2(O)C(=O)/C=C/C)C(=O)NC1=O (centres unmarked) [Compound I]
MIC [1, 15]: < 0.03 µg/mL | MFC [1, 16]: 0.06 µg/mL (≈ 0.11 µM) | MIC [2, 15]: 16 µg/mL (≈ 29.3 µM) | MFC [2, 16]: 32 µg/mL (≈ 58.6 µM) | MIC [3, 15]: < 0.03 µg/mL | MFC [3, 16]: < 0.03 µg/mL | MIC [4, 15]: 2 µg/mL (≈ 3.67 µM) | MFC [4, 16]: 4 µg/mL (≈ 7.33 µM) | MIC [5, 15]: 4 µg/mL (≈ 7.33 µM) | MFC [5, 16]: 8 µg/mL (≈ 14.7 µM) | MIC [6, 15]: 0.06 µg/mL (≈ 0.11 µM) | MFC [6, 16]: 0.125 µg/mL (≈ 0.229 µM) | MIC (Candida albicans (CA2); [15]): 0.125 µg/mL (≈ 0.229 µM) | MFC (Candida albicans (CA2); [16]): 0.25 µg/mL (≈ 0.458 µM) | MIC [7, 15]: 1 µg/mL (≈ 1.83 µM) | MFC [7, 16]: 2 µg/mL (≈ 3.67 µM) | MIC [8, 15]: 2 µg/mL (≈ 3.67 µM) | MFC [8, 16]: 16 µg/mL (≈ 29.3 µM) | MIC (Candida krusei; [15]): 0.06 µg/mL (≈ 0.11 µM) | MFC (Candida krusei; [16]): 0.5 µg/mL (≈ 0.916 µM) | MIC [9]: < 0.03 µg/mL | MIC ([10]; 35°-37° C., read-out: Minimum Inhibitory Concentration (MIC)): < 0.03 µg/mL | MFC [10, 16]: < 0.03 µg/mL | MIC ([11]; Saccharomyces cerevisiae (MY2140), 24 hours, 35°-37° C., read-out: Minimum Inhibitory Concentration (MIC)): 4 µg/mL (≈ 7.33 µM) | MFC ([11]; Saccharomyces cerevisiae, read-out: Minimum Fungicidal Concentration (MFC)): 0.5 µg/mL (≈ 0.916 µM) | MIC [12]: < 0.03 µg/mL | MIC [13]: 1 µg/mL (≈ 1.83 µM) | effectiveness against a panel of fungi (MIC and MFC) relative to amphotericin B (panel of fungi): effective at concentrations comparable to an established antifungal agent, amphotericin B | inhibition of growth of filamentous fungi (inhibition zones) [14]: effectively inhibit growth of the fungal organisms
